Target: Human Cot (Homo sapiens (Human), UniProt P41279)
Test: High Throughput Cot Biochemical Assay
Details: IC50 HTRF, Cot HTRF (TR-FRET) biochemical assay

Sequence of Human Cot (P41279 30-397): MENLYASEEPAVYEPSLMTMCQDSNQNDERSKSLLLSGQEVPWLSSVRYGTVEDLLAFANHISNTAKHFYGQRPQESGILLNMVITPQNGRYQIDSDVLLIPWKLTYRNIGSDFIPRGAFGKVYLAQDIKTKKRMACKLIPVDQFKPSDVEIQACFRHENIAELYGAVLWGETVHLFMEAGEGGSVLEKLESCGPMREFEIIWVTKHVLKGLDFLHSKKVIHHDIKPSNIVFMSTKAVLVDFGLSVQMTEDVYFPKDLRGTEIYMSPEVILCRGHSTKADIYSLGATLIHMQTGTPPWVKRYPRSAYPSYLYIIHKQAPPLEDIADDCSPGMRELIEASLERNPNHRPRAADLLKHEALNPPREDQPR

Row | Compound | IC50
1 | CCN1CCC(n2cc([C@@H](Nc3cc(Cl)c4ncc(C#N)c(Nc5ccc(F)c(Cl)c5)c4c3)c3ccc(C(F)(F)F)s3)nn2)CC1 [Example 365, (R)-8-chloro-4-((3-chloro-4-fluorophenyl)amino)-6-(((1-(1-ethylpiperidin-4-yl)-1H-1,2,3-triazol-4-yl)(5-(trifluoromethyl)thiophen-2-yl)methyl)amino)quinoline-3-carbonitrile] | 38 nM
2 | CC(C)(C)OC(=O)N1CCC(n2cc([C@@H](Nc3cc(Cl)c4ncc(C#N)c(Nc5ccc(F)c(Cl)c5)c4c3)c3cncs3)nn2)CC1 [Example 384, tert-butyl (R)-4-(4-(((8-chloro-4-((3-chloro-4-fluorophenyl)amino)-3-cyanoquinolin-6-yl)amino)(thiazol-5-yl)methyl)-1H-1,2,3-triazol-1-yl)piperidine-1-carboxylate] | 153 nM
3 | N#Cc1cnc2c(Cl)cc(N[C@H](c3cn(C4CCNCC4)nn3)c3ccc(Cl)s3)cc2c1Nc1ccc(F)c(Cl)c1 [Example 386, (R)-8-chloro-4-((3-chloro-4-fluoro-phenyl)amino)-6-(((5-chlorothiophen-2-yl)(1-(piperidin-4-yl)-1H-1,2,3-triazol-4-yl)methyl)amino)quinoline-3-carbonitrile] | 36 nM
4 | N#Cc1cnc2c(Cl)cc(N[C@H](c3cn(C4CCNCC4)nn3)c3cccs3)cc2c1Nc1ccc(F)c(Cl)c1 [Example 388, (R)-8-chloro-4-((3-chloro-4-fluoro-phenyl)amino)-6-(((1-(piperidin-4-yl)-1H-1,2,3-triazol-4-yl)(thiophen-2-yl)methyl)amino)quinoline-3-carbonitrile] | 10 nM
5 | CCN1CCC(n2cc([C@@H](Nc3cc(Cl)c4ncc(C#N)c(Nc5ccc(F)c(Cl)c5)c4c3)c3ccsc3)nn2)CC1 [Example 392, (S)-8-chloro-4-((3-chloro-4-fluoro-phenyl)amino)-6-(((1-(1-ethylpiperidin-4-yl)-1H-1,2,3-triazol-4-yl)(thiophen-3-yl)methyl)amino)quinoline-3-carbonitrile] | 3 nM
6 | CC(C)(C)OC(=O)N1CCC(n2cc([C@@H](Nc3cc(Cl)c4ncc(C#N)c(Nc5ccc(F)c(Cl)c5)c4c3)c3ccsc3)nn2)CC1 [Example 394, tert-butyl (S)-4-(4-(((8-chloro-4-((3-chloro-4-fluorophenyl)amino)-3-cyanoquinolin-6-yl)amino)(thiophen-3-yl)methyl)-1H-1,2,3-triazol-1-yl)piperidine-1-carboxylate] | 147 nM

Second part, the molecule after the results:

Row | IC50 | Compound
7 | 30 nM | CC(C)n1cc([C@@H](Nc2cc(Cl)c3ncc(C#N)c(Nc4ccc(F)c(Cl)c4)c3c2)c2cncn2C)nn1 [Example 311, (S)-8-chloro-4-((3-chloro-4-fluorophenyl)amino)-6-(((1-isopropyl-1H-1,2,3-triazol-4-yl)(1-methyl-1H-imidazol-5-yl)methyl)amino)quinoline-3-carbonitrile]
8 | 60 nM | N#Cc1cnc2c(Cl)cc(N[C@H](c3cn(C4COC4)nn3)c3cc(Br)cnc3Cl)cc2c1Nc1ccc(F)c(Cl)c1 [Example 320, (S)-6-(((5-bromo-2-chloropyridin-3-yl)(1-(oxetan-3-yl)-1H-1,2,3-triazol-4-yl)methyl)amino)-8-chloro-4-((3-chloro-4-fluorophenyl)amino)quinoline-3-carbonitrile]
9 | 59 nM | N#Cc1cnc2c(Cl)cc(N[C@H](c3cn(CCO)nn3)c3cnc(Cl)cc3Cl)cc2c1Nc1ccc(F)c(Cl)c1 [Example 330, (S)-8-chloro-4-((3-chloro-4-fluorophenyl)amino)-6-(((4,6-dichloropyridin-3-yl)(1-(2-hydroxy-ethyl)-1H-1,2,3-triazol-4-yl)methyl)-amino)quinoline-3-carbonitrile]
10 | 3 nM | N#Cc1csc([C@H](Nc2cc(Cl)c3ncc(C#N)c(Nc4ccc(F)c(Cl)c4)c3c2)c2cn(CCO)nn2)c1 [Example 333, (R)-8-chloro-4-((3-chloro-4-fluorophenyl)amino)-6-(((4-cyanothiophen-2-yl)(1-(2-hydroxyethyl)-1H-1,2,3-triazol-4-yl)methyl)amino)quinoline-3-carbonitrile]
11 | 2 nM | N#Cc1cnc2c(Cl)cc(N[C@@H](c3cccnc3)c3cn(CCO)nn3)cc2c1Nc1ccc(F)c(Cl)c1 [Example 336, (S)-8-chloro-4-((3-chloro-4-fluoro-phenyl)amino)-6-(((1-(2-hydroxyethyl)-1H-1,2,3-triazol-4-yl)(pyridin-3-yl)methyl)amino)quinoline-3-carbonitrile]
12 | 16 nM | COCCn1cc([C@@H](Nc2cc(Cl)c3ncc(C#N)c(Nc4ccc(F)c(Cl)c4)c3c2)c2cc(C#N)cs2)nn1 [Example 337, (R)-8-chloro-4-((3-chloro-4-fluorophenyl)amino)-6-(((4-cyanothiophen-2-yl)(1-(2-methoxy-ethyl)-1H-1,2,3-triazol-4-yl)methyl)amino)quinoline-3-carbonitrile]
13 | 2 nM | N#Cc1cnc2c(Cl)cc(N[C@@H](c3cscn3)c3cn(CCO)nn3)cc2c1Nc1ccc(F)c(Cl)c1 [Example 356, (S)-8-chloro-4-((3-chloro-4-fluorophenyl)amino)-6-(((1-(2-hydroxyethyl)-1H-1,2,3-triazol-4-yl)(thiazol-4-yl)methyl)amino)-quinoline-3-carbonitrile]
14 | 18 nM | N#Cc1cnc2c(Cl)cc(N[C@H](c3cn(C4CCNCC4)nn3)c3sccc3Cl)cc2c1Nc1ccc(F)c(Cl)c1 [Example 387, (R)-8-chloro-4-((3-chloro-4-fluoro-phenyl)amino)-6-(((3-chlorothiophen-2-yl)(1-(piperidin-4-yl)-1H-1,2,3-triazol-4-yl)methyl)amino)quinoline-3-carbonitrile]

Same assay, conditions: read-out: IC50 HTRF; Cot HTRF (TR-FRET) biochemical assay

Row | Compound | IC50
15 | N#Cc1csc([C@H](Nc2cc(Cl)c3ncc(C#N)c(Nc4ccc(F)c(Cl)c4)c3c2)c2cn(CCN3CCOCC3)nn2)c1 [Example 332, (R)-8-chloro-4-((3-chloro-4-fluorophenyl)amino)-6-(((4-cyanothiophen-2-yl)(1-(2-morpho-linoethyl)-1H-1,2,3-triazol-4-yl)methyl)amino)quinoline-3-carbonitrile] | 65 nM
16 | N#Cc1cnc2c(Cl)cc(N[C@@H](c3ccsc3)c3cn(C4CCNCC4)nn3)cc2c1Nc1ccc(F)c(Cl)c1 [Example 393, (S)-8-chloro-4-t-((3-chloro-4-fluoro-phenyl)amino)-6-(((1-(piperidin-4-yl)-1H-1,2,3-triazol-4-yl)(thiophen-3-yl)methyl)amino)quinoline-3-carbonitrile] | 5 nM

Next, values leading:

Row | IC50 | Compound
17 | 32 nM | CC(C)n1cc([C@@H](Nc2cc(Cl)c3ncc(C#N)c(Nc4ccc(F)c(Cl)c4)c3c2)c2cc(Br)cnc2Cl)nn1 [Example 293, (S)-6-(((5-brorno-2-chloropyridin-3-yl)(1-isopropyl-1H-1,2,3-triazol-4-yl)methyl)amino)-8-chloro-4-((3-chloro-4-fluorophenyl)-amino)quinoline-3-carbonitrile]
18 | 504 nM | Cn1cc([C@H](Nc2cc(Cl)c3ncc(C#N)c(Nc4ccc(F)c(Cl)c4)c3c2)c2cccnc2)nn1 [Example 343, (R)-8-chloro-4-((3-chloro-4-fluorophenyl)amino)-6-(((1-methyl-1H-1,2,3-triazol-4-yl)(pyridin-3-yl)methyl)amino)quinoline-3-carbonitrile]

Reference: patent US11066414B2, “Cot modulators and methods of use thereof” (Gilead Sciences, Inc., priority 2015, dated 2021)
